Assay results published in PMC6009956, “Design, synthesis and biological activity of N^4-phenylsubstituted-7H-pyrrolo[2,3-d]pyrimidin-4-amines as dual inhibitors of aurora kinase A and epidermal growth factor receptor kinase” (Journal of Enzyme Inhibition and Medicinal Chemistry, 2017).
Read-outs that look alike come from different tables or passages of the source. Each block holds one compound with its values, some of them ahead of it.

Legend:
aurora A kinase (AURKA) = target: T1, aurora A kinase (AURKA) (Homo sapiens, UniProt O14965); assay: ADP-Glo kinase assay, Aurora A; format: biochemical
T1 construct: purchased BPS Bioscience (assay run externally by the vendor)
T1 sequence (O14965 1-403): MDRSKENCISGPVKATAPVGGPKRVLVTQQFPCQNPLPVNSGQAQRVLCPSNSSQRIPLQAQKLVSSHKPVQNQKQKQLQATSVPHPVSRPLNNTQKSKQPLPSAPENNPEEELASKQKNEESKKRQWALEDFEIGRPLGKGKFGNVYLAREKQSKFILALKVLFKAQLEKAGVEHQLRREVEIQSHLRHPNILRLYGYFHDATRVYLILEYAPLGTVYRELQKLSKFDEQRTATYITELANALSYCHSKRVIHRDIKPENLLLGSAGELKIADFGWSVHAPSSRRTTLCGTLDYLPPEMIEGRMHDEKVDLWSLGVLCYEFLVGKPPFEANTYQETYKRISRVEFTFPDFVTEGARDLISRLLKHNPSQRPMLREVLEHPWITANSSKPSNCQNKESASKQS

EGFR = EGFR (Homo sapiens, UniProt P00533); assay: ADP-Glo kinase assay, EGFR; format: biochemical; design: purchased BPS Bioscience (assay run externally by the vendor)
[1] = 10 µM ATP, triplicate, read-out: AURKA IC50 ± SD
[2] = 10 µM ATP/0.2 mg/ml Kemptide, read-out: Aurora A IC50 (dose-response curve, supplement)
[3] = 10 µM ATP/0.2 mg/ml Poly-Glu-Tyr, read-out: EGFR IC50 (dose-response curve, supplement)

Sequence of EGFR (P00533 25-1210): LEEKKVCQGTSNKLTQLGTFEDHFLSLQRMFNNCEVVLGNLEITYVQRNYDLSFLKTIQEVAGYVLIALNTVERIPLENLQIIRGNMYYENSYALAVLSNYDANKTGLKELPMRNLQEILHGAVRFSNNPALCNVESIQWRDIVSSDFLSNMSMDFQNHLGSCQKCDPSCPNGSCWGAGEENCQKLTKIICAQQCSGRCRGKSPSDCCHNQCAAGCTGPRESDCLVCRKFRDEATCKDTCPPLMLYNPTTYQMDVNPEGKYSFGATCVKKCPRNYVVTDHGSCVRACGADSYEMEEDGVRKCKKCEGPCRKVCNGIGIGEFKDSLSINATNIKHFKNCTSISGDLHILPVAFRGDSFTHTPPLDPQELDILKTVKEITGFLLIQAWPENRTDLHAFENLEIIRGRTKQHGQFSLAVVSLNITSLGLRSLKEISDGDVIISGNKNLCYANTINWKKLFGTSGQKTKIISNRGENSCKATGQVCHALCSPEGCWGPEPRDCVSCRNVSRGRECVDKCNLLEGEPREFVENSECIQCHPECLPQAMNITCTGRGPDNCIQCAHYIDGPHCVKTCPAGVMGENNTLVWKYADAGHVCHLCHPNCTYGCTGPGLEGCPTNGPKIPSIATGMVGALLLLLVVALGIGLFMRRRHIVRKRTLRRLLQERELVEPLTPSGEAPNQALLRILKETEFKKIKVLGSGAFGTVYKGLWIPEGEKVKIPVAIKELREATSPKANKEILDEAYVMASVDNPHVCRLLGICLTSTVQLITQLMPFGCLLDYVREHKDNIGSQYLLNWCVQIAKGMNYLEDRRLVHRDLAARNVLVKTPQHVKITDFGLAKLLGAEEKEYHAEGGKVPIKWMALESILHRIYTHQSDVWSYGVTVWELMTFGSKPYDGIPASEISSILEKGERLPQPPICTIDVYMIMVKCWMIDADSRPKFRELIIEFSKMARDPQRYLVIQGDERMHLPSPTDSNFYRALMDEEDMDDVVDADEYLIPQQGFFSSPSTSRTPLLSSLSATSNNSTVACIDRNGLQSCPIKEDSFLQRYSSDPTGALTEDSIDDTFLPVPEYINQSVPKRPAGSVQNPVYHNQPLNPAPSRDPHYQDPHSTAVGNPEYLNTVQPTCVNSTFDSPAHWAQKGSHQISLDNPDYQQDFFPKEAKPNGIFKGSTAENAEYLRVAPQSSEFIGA

IC50 (aurora A kinase (AURKA); [1]): 3430 ± 120 nM
IC50 (aurora A kinase (AURKA); [2]): 3400 nM
Aurora A % Activity Set1 (aurora A kinase (AURKA); Log[nM] 0): 101%
Aurora A % Activity Set2 (aurora A kinase (AURKA); Log[nM] 0): 105%
Aurora A % Activity Set3 (aurora A kinase (AURKA); Log[nM] 0): 95%
Aurora A % Activity Set1 (aurora A kinase (AURKA); Log[nM] 1.0): 100%
Aurora A % Activity Set2 (aurora A kinase (AURKA); Log[nM] 1.0): 102%
Aurora A % Activity Set3 (aurora A kinase (AURKA); Log[nM] 1.0): 97%
Aurora A % Activity Set1 (aurora A kinase (AURKA); Log[nM] 1.5): 97%
Aurora A % Activity Set2 (aurora A kinase (AURKA); Log[nM] 1.5): 100%
Aurora A % Activity Set3 (aurora A kinase (AURKA); Log[nM] 1.5): 97%
Aurora A % Activity Set1 (aurora A kinase (AURKA); Log[nM] 2.0): 96%
Aurora A % Activity Set2 (aurora A kinase (AURKA); Log[nM] 2.0): 101%
Aurora A % Activity Set3 (aurora A kinase (AURKA); Log[nM] 2.0): 105%
Aurora A % Activity Set1 (aurora A kinase (AURKA); Log[nM] 2.5): 89%
Aurora A % Activity Set2 (aurora A kinase (AURKA); Log[nM] 2.5): 95%
Aurora A % Activity Set3 (aurora A kinase (AURKA); Log[nM] 2.5): 95%
Aurora A % Activity Set1 (aurora A kinase (AURKA); Log[nM] 3.0): 89%
Aurora A % Activity Set2 (aurora A kinase (AURKA); Log[nM] 3.0): 91%
Aurora A % Activity Set3 (aurora A kinase (AURKA); Log[nM] 3.0): 92%
Aurora A % Activity Set1 (aurora A kinase (AURKA); Log[nM] 3.5): 48%
Aurora A % Activity Set2 (aurora A kinase (AURKA); Log[nM] 3.5): 50%
Aurora A % Activity Set3 (aurora A kinase (AURKA); Log[nM] 3.5): 53%
Aurora A % Activity Set1 (aurora A kinase (AURKA); Log[nM] 4.0): 17%
Aurora A % Activity Set2 (aurora A kinase (AURKA); Log[nM] 4.0): 17%
Aurora A % Activity Set3 (aurora A kinase (AURKA); Log[nM] 4.0): 17%
Aurora A % Activity Set1 (aurora A kinase (AURKA); Log[nM] 4.5): 7%
Aurora A % Activity Set2 (aurora A kinase (AURKA); Log[nM] 4.5): 8%
Aurora A % Activity Set3 (aurora A kinase (AURKA); Log[nM] 4.5): 8%
Aurora A % Activity Set1 (aurora A kinase (AURKA); Log[nM] 5.0): 4%
Aurora A % Activity Set2 (aurora A kinase (AURKA); Log[nM] 5.0): 4%
Aurora A % Activity Set3 (aurora A kinase (AURKA); Log[nM] 5.0): 3%
IC50 (EGFR; 10 µM ATP, triplicate, read-out: EGFR IC50 ± SD): 20 ± 3.6 nM
IC50 (EGFR; [3]): 19.9 nM
EGFR % Activity Set1 (EGFR; Log[nM] 0): 77%
EGFR % Activity Set2 (EGFR; Log[nM] 0): 88%
EGFR % Activity Set3 (EGFR; Log[nM] 0): 76%
EGFR % Activity Set1 (EGFR; Log[nM] 1.0): 69%
EGFR % Activity Set2 (EGFR; Log[nM] 1.0): 75%
EGFR % Activity Set3 (EGFR; Log[nM] 1.0): 66%
EGFR % Activity Set1 (EGFR; Log[nM] 1.5): 34%
EGFR % Activity Set2 (EGFR; Log[nM] 1.5): 39%
EGFR % Activity Set3 (EGFR; Log[nM] 1.5): 33%
EGFR % Activity Set1 (EGFR; Log[nM] 2.0): 19%
EGFR % Activity Set2 (EGFR; Log[nM] 2.0): 19%
EGFR % Activity Set3 (EGFR; Log[nM] 2.0): 16%
EGFR % Activity Set1 (EGFR; Log[nM] 2.5): 10%
EGFR % Activity Set2 (EGFR; Log[nM] 2.5): 9%
EGFR % Activity Set3 (EGFR; Log[nM] 2.5): 8%
EGFR % Activity Set1 (EGFR; Log[nM] 3.0): 5%
EGFR % Activity Set2 (EGFR; Log[nM] 3.0): 5%
EGFR % Activity Set3 (EGFR; Log[nM] 3.0): 5%
EGFR % Activity Set1 (EGFR; Log[nM] 3.5): 2%
EGFR % Activity Set2 (EGFR; Log[nM] 3.5): 9%
EGFR % Activity Set3 (EGFR; Log[nM] 3.5): 2%
EGFR % Activity Set1 (EGFR; Log[nM] 4.0): 1%
EGFR % Activity Set2 (EGFR; Log[nM] 4.0): 1%
EGFR % Activity Set3 (EGFR; Log[nM] 4.0): 1%
EGFR % Activity Set1 (EGFR; Log[nM] 4.5): 0%
EGFR % Activity Set2 (EGFR; Log[nM] 4.5): 0%
EGFR % Activity Set3 (EGFR; Log[nM] 4.5): 0%
EGFR % Activity Set1 (EGFR; Log[nM] 5.0): 0%
EGFR % Activity Set2 (EGFR; Log[nM] 5.0): 0%
EGFR % Activity Set3 (EGFR; Log[nM] 5.0): 0%
Structure (SMILES): Cc1cccc(Nc2ncnc3[nH]ccc23)c1 [Compound 12, N^4-(3-methylaniline)-7H-pyrrolo[2,3-d]pyrimidin-4-amine]

IC50 (aurora A kinase (AURKA); [1]): 5780 ± 430 nM
IC50 (aurora A kinase (AURKA); [2]): 5800 nM
Aurora A % Activity Set1 (aurora A kinase (AURKA); Log[nM] 0): 94%
Aurora A % Activity Set2 (aurora A kinase (AURKA); Log[nM] 0): 101%
Aurora A % Activity Set3 (aurora A kinase (AURKA); Log[nM] 0): 96%
Aurora A % Activity Set1 (aurora A kinase (AURKA); Log[nM] 1.0): 103%
Aurora A % Activity Set2 (aurora A kinase (AURKA); Log[nM] 1.0): 101%
Aurora A % Activity Set3 (aurora A kinase (AURKA); Log[nM] 1.0): 106%
Aurora A % Activity Set1 (aurora A kinase (AURKA); Log[nM] 1.5): 107%
Aurora A % Activity Set2 (aurora A kinase (AURKA); Log[nM] 1.5): 113%
Aurora A % Activity Set3 (aurora A kinase (AURKA); Log[nM] 1.5): 119%
Aurora A % Activity Set1 (aurora A kinase (AURKA); Log[nM] 2.0): 110%
Aurora A % Activity Set2 (aurora A kinase (AURKA); Log[nM] 2.0): 108%
Aurora A % Activity Set3 (aurora A kinase (AURKA); Log[nM] 2.0): 113%
Aurora A % Activity Set1 (aurora A kinase (AURKA); Log[nM] 2.5): 108%
Aurora A % Activity Set2 (aurora A kinase (AURKA); Log[nM] 2.5): 108%
Aurora A % Activity Set3 (aurora A kinase (AURKA); Log[nM] 2.5): 112%
Aurora A % Activity Set1 (aurora A kinase (AURKA); Log[nM] 3.0): 94%
Aurora A % Activity Set2 (aurora A kinase (AURKA); Log[nM] 3.0): 100%
Aurora A % Activity Set3 (aurora A kinase (AURKA); Log[nM] 3.0): 94%
Aurora A % Activity Set1 (aurora A kinase (AURKA); Log[nM] 3.5): 73%
Aurora A % Activity Set2 (aurora A kinase (AURKA); Log[nM] 3.5): 63%
Aurora A % Activity Set3 (aurora A kinase (AURKA); Log[nM] 3.5): 72%
Aurora A % Activity Set1 (aurora A kinase (AURKA); Log[nM] 4.0): 32%
Aurora A % Activity Set2 (aurora A kinase (AURKA); Log[nM] 4.0): 26%
Aurora A % Activity Set3 (aurora A kinase (AURKA); Log[nM] 4.0): 28%
Aurora A % Activity Set1 (aurora A kinase (AURKA); Log[nM] 4.5): 13%
Aurora A % Activity Set2 (aurora A kinase (AURKA); Log[nM] 4.5): 10%
Aurora A % Activity Set3 (aurora A kinase (AURKA); Log[nM] 4.5): 11%
Aurora A % Activity Set1 (aurora A kinase (AURKA); Log[nM] 5.0): 14%
Aurora A % Activity Set2 (aurora A kinase (AURKA); Log[nM] 5.0): 11%
Aurora A % Activity Set3 (aurora A kinase (AURKA); Log[nM] 5.0): 13%
IC50 (EGFR; 10 µM ATP, triplicate, cell without unit, read-out: EGFR IC50 ± SD): 43.6 ± 7.77 nM
IC50 (EGFR; [3]): 43.9 nM
EGFR % Activity Set1 (EGFR; Log[nM] 0): 91%
EGFR % Activity Set2 (EGFR; Log[nM] 0): 92%
EGFR % Activity Set3 (EGFR; Log[nM] 0): 91%
EGFR % Activity Set1 (EGFR; Log[nM] 1.0): 66%
EGFR % Activity Set2 (EGFR; Log[nM] 1.0): 76%
EGFR % Activity Set3 (EGFR; Log[nM] 1.0): 95%
EGFR % Activity Set1 (EGFR; Log[nM] 1.5): 54%
EGFR % Activity Set2 (EGFR; Log[nM] 1.5): 61%
EGFR % Activity Set3 (EGFR; Log[nM] 1.5): 56%
EGFR % Activity Set1 (EGFR; Log[nM] 2.0): 29%
EGFR % Activity Set2 (EGFR; Log[nM] 2.0): 30%
EGFR % Activity Set3 (EGFR; Log[nM] 2.0): 32%
EGFR % Activity Set1 (EGFR; Log[nM] 2.5): 17%
EGFR % Activity Set2 (EGFR; Log[nM] 2.5): 19%
EGFR % Activity Set3 (EGFR; Log[nM] 2.5): 15%
EGFR % Activity Set1 (EGFR; Log[nM] 3.0): 8%
EGFR % Activity Set2 (EGFR; Log[nM] 3.0): 8%
EGFR % Activity Set3 (EGFR; Log[nM] 3.0): 6%
EGFR % Activity Set1 (EGFR; Log[nM] 3.5): 3%
EGFR % Activity Set2 (EGFR; Log[nM] 3.5): 4%
EGFR % Activity Set3 (EGFR; Log[nM] 3.5): 3%
EGFR % Activity Set1 (EGFR; Log[nM] 4.0): 0%
EGFR % Activity Set2 (EGFR; Log[nM] 4.0): 1%
EGFR % Activity Set3 (EGFR; Log[nM] 4.0): 1%
EGFR % Activity Set1 (EGFR; Log[nM] 4.5): 0%
EGFR % Activity Set2 (EGFR; Log[nM] 4.5): 1%
EGFR % Activity Set3 (EGFR; Log[nM] 4.5): 0%
EGFR % Activity Set1 (EGFR; Log[nM] 5.0): 0%
EGFR % Activity Set2 (EGFR; Log[nM] 5.0): 0%
EGFR % Activity Set3 (EGFR; Log[nM] 5.0): 1%
Structure (SMILES): FC(F)(F)c1cccc(Nc2ncnc3[nH]ccc23)c1 [Compound 13, N^4-(3-trifluoromethylphenyl)-7H-pyrrolo[2,3-d]pyrimidin-4-amine]
